Here are results for 17 molecules from PubChem BioAssay (NCI).

Holding throughout (test): inhibition of tumour cell growth, NCI panel, 48 h
For test [1], the system named is CAKI-1 renal.
Test [2] has as its system CCRF-CEM leukemia.
The test system of test [3] is COLO 205 colon.
In test [4] the test system is HOP-92 NSCLC.
Test [5] deals with HT29 colon.
In test [6] the test system is MDA-MB-231 breast.
In test [7] the test system is RPMI-8226 leukemia.
Test [8] concerns SK-MEL-5 melanoma.
Test [9] concerns SNB-75 CNS.
The subject of test [10] is UO-31 renal.

Where “and” joins values, the source holds several entries; their conditions need not be identical. Equal entries are not always repeated.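 Interpolation was linear, between the two tested concentrations surrounding the appropriate level; five concentrations were tested over 48 hours in 96-well plates. GI50 marks 50% less growth. TGI marks complete inhibition of growth.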

`COc1ccc(-n2cc(-c3cc(OC)c(OC)c(OC)c3)c(C(=O)C(F)(F)F)c2C)cc1`: the GI50 in test [1] was 73.8 µM; in test [2] it was 16.1 µM; in test [3], 65.2 µM; in test [4] it was 2.39 µM; in test [5], 9.75 µM; in test [6], greater than 100 µM. The GI50 in [7] was 4.53 µM; in [8], 7.33 µM; in test [9] it was 13.8 µM; in test [10] it was 4.6 µM. Moreover, the TGI in [1] is greater than 100 µM; in [2], greater than 100 µM; in test [3], greater than 100 µM; in [4], 21.5 µM; in test [5], greater than 100 µM; in test [6], greater than 100 µM. Also, the TGI in [7], in test [8], in [9] and in [10] was greater than 100 µM each time.
With `CS(=O)(=O)Nc1ccc2c(c1)oc(=O)c1ccccc12`, the TGI in test [1], in [2], in test [3], in [4], in [5] and in test [6] was greater than 100 µM in each case. In addition, the TGI in [7], in test [8], in test [9] and in test [10] was greater than 100 µM throughout.
Take `CCN(CC)CCOc1ccc(-c2nc3cc(Cl)ccc3s2)cc1`: the GI50 was 1.47 µM in [1]; 0.565 µM in [2]; 1.45 µM in [3]; 1.22 µM in test [4]; 0.6 µM in test [5]; 1.47 µM in test [6]. Also, the GI50 in [7] is 0.715 µM; in [8], 1.54 µM; in test [9] it was 1.21 µM; in test [10], 1.66 µM. The TGI is 2.84 µM in test [1]; 3.14 µM in test [2]; 2.76 µM in test [3]; 4.2 µM in test [4]; 1.84 µM in [5]; 2.92 µM in test [6]. The TGI in [7] amounted to 3.34 µM; in test [8], 2.88 µM; in [9], 2.65 µM; in test [10], 3.37 µM.
Regarding `COc1cc(N(CCC#N)CCC#N)ccc1/C(N=Nc1ccc([N+](=O)[O-])cc1)=N/NC(=O)c1cc(Br)ccc1O`, the GI50 in [1] is 65.9 µg/mL; in test [2], 48.5 µg/mL; in test [3] it was 24 µg/mL; in test [4], 79.6 µg/mL; in test [5] it was 43.5 µg/mL; in [6] it was 35.7 µg/mL. In addition, the GI50 was 38.2 µg/mL in [7], 26.3 µg/mL in [8], 28.4 µg/mL in [9] and 48.4 µg/mL in test [10]. The TGI was greater than 150 µg/mL in [1]; greater than 150 µg/mL in test [2]; 45.9 µg/mL in test [3]; greater than 150 µg/mL in test [4]; 105 µg/mL in test [5]; 85.2 µg/mL in test [6]. The TGI in test [7] is greater than 150 µg/mL; in [8] it was 46.9 µg/mL; in test [9], 83.6 µg/mL; in test [10], greater than 150 µg/mL.
In the case of `CCN1CCN(C(c2ccc(C(F)(F)F)cc2)c2ccc3cccnc3c2O)CC1` (stereo not given), the GI50 in test [1] was 2.55 µM; in test [2], 1.45 µM; in test [3] it was 3.35 µM; in [4], 3.62 µM; in test [5] it was 5.31 µM; in test [6], 2.97 µM. Further, the GI50 in [7] is 0.798 µM; in test [8] it was 2.35 µM; in [9] it was 1.84 µM; in test [10], 1.59 µM. The TGI in test [1] was found to be 9.36 µM; in test [2], 7.85 µM; in test [3], 13.1 µM; in test [4] it was 25.3 µM; in [5] it was 21 µM; in test [6] it was 25.3 µM. In addition, the TGI in test [7] amounted to 16.7 µM; in test [8] it was 7.83 µM; in test [9], 17 µM; in [10], 9.04 µM.
For `C=COCCCOc1ccccc1`, the TGI in test [1], in [2], in test [3], in test [4], in test [5] and in test [6] was greater than 100 µM in each case. The TGI in test [7], in [8], in [9] and in test [10] was greater than 100 µM in each case. The GI50 in test [4], in test [6] and in [9] was greater than 100 µM throughout.
In the case of `S=C1NC2(CCCCCC2)NN1c1ccccc1`, the TGI was greater than 100 µM in [1]; greater than 64.9 µM in [2]; 0.431 µM in [3]; greater than 100 µM in test [4]; greater than 100 µM in test [5]; greater than 100 µM in [6]. Moreover, the TGI in test [7], in test [8], in [9] and in test [10] was greater than 100 µM in each case.
As to `COc1cc(C2CC(c3cccc(Br)c3)=NN2C(C)=O)cc(OC)c1OC` (stereo not given), the GI50 was 0.282 µM in [1]; 0.264 µM in test [2]; 0.256 µM in test [3]; 17 µM in test [4]; 0.284 µM in test [5]; 1.67 µM in test [6]. The GI50 in [7] is 0.181 µM; in test [8] it was 0.289 µM; in [9], 0.368 µM; in test [10], 3.33 µM. For the same molecule, the TGI was 54.1 µM in [1]; 4.5 µM in [2]; 0.802 µM in test [3]; 83.8 µM in test [4]; 14.9 µM in [5]; greater than 46 µM in test [6]. For the same molecule, the TGI is 0.67 µM in test [7], 14.9 µM in test [8], greater than 100 µM in test [9] and greater than 65.6 µM in test [10].
Regarding `CCn1c(-c2nonc2N)nc2c(C#CC(C)(C)O)nc(OC[C@H](N)c3ccccc3)cc21`, the GI50 is 3.94 µM in test [1]; 3.65 µM in [2]; 3.52 µM in test [3]; 2.37 µM in [4]; 4.11 µM in [5]; 4.35 µM in [6]. For the same molecule, the GI50 is 6.04 µM in test [7], 4.21 µM in test [8], 0.926 µM in test [9] and 2.91 µM in [10]. Also, the TGI in [1] was 8.93 µM; in [2] it was 24.9 µM; in test [3] it was 7 µM; in test [4], 7.38 µM; in [5], 8.81 µM; in test [6], 8.83 µM. The TGI in [7] was found to be 14 µM; in test [8] it was 7.64 µM; in test [9] it was 4.65 µM; in test [10], 6.83 µM.
For the molecule `O=C1NC(=O)C(c2cnc3ccccn23)=C1c1cn2c3c(cc(F)cc13)CN(C(=O)N1CCCCC1)CC2`, the GI50 is 1.24 µM in test [1]; 2.69 µM in test [2]; 11.4 µM in test [3]; 14.8 µM in test [4]; 0.723 µM in test [5]; 11.4 µM in [6]. Further, the values for the GI50 in test [7], in test [8] and in test [10] were 15.9 µM, 2.81 µM and 2.54 µM, respectively. The TGI in [1] was greater than 37.7 µM; in test [2] it was 49.3 µM; in test [3], 36.9 µM; in [4] it was 38.1 µM; in test [5] it was 20 µM; in test [6] it was 33.1 µM. Also, the TGI was 46.6 µM in test [7], 16.8 µM in test [8], 46.3 µM in [9] and greater than 65.5 µM in [10].
In the case of `CCOC(=O)CCCn1c(SC)nc2[nH]cc(-c3ccccc3)c2c1=O`, the GI50 was 15.8 µM in test [1]; 3.01 µM in [2]; 24.2 µM in [3]; 7.62 µM in test [4]; 19.5 µM in [5]; 25.8 µM in test [6]. Besides, the GI50 in test [7] was 14.6 µM; in test [8] it was 12.9 µM; in test [9], 15.1 µM; in test [10] it was 19.9 µM. Further, the TGI came out at 45.1 µM in test [1]; 54.5 µM in test [2]; 56.1 µM in [3]; 41.1 µM in test [4]; 59.7 µM in test [5]; 66.7 µM in [6]. For the same molecule, the TGI is 36.3 µM in test [7], 25.7 µM in test [8], 40.1 µM in test [9] and 57.9 µM in test [10].
`N#Cc1c(NN)n(C2OC(CO)C(O)C2O)c2ncnc(N)c12` (stereo not given): the GI50 in [1] was 0.0619 µM; in [2], 0.13 µM; in test [4], 0.142 µM; in test [5], 0.0351 µM; in test [6] it was 0.284 µM; in [7], 0.105 µM. Besides, the GI50 was 0.461 µM in [8], 0.388 µM in [9] and 0.0417 µM in test [10]. Also, the TGI in test [1] is 0.639 µM; in [2] it was 0.605 µM; in [3], 0.0424 µM; in [4] it was 1.43 µM; in test [6], greater than 24.1 µM; in test [7], 0.614 µM. Also, the TGI in [8] amounted to 3.05 µM; in [9] it was 9.56 µM; in [10], 0.774 µM.
In the case of `CC(C)CCN1c2nc(Nc3cc(F)c(O)c(F)c3)ncc2N(C)C(=O)C1C` (stereo not given), the GI50 in test [1] was 2.84 µM; in test [2], 1.52 µM; in test [3] it was 14.6 µM; in [4], 0.591 µM; in test [5], 5.83 µM; in test [6], 5.17 µM. Besides, the GI50 in test [7] was 2.82 µM; in test [8], 2.65 µM; in [9], 13.4 µM; in [10], 0.939 µM. The TGI in test [1] was greater than 77.1 µM; in [2], 23.6 µM; in test [3] it was 29.3 µM; in [4] it was 14.9 µM; in test [5] it was 46.7 µM; in test [6], greater than 100 µM. Further, the TGI was 11.5 µM in test [7], 14 µM in test [8], 44.3 µM in test [9] and 16.8 µM in test [10].
In the case of `O/N=C/C1C(OCc2ccccc2)C(OCc2ccccc2)C(OCc2ccccc2)CN1Cc1ccccc1` (stereo not given), the TGI is greater than 100 µM in test [1]; 71.2 µM and > 100 µM in test [2]; 25.2 µM in test [3]; 33.1 µM and 9.16 µM in test [4]; 78.7 µM and > 100 µM in test [5]; 93.7 µM in test [6]. For the same molecule, the TGI in test [7] was greater than 100 µM; in test [8], 23.9 µM; in test [9], 33.1 µM and > 100 µM; in test [10], 65.9 µM and > 100 µM. Besides, the GI50 in test [3] is 12.3 µM; in test [4], 13.6 µM and 1.99 µM; in [5], 10.7 µM and 3.59 µM; in test [9], 11.5 µM and > 100 µM; in test [10], 20 µM and 5.22 µM.
`O=C(O)C1C2C=CC(O2)C1C(=O)NCc1ccccn1` (stereo not given): the TGI in test [1], in test [2], in test [3], in [4], in test [5] and in test [6] was greater than 100 µM in each case. In addition, the TGI in test [7], in test [8], in test [9] and in test [10] was greater than 100 µM throughout.
On to `CNC(=O)N(C)N=NCCCl`, for which the TGI in test [1], in test [2], in test [3], in test [4], in test [5] and in [6] was greater than 100 µM in each case. The TGI in test [7], in test [8], in test [9] and in [10] was greater than 100 µM each time.
As for `COc1ccc(C(C)=O)cc1N1C(=O)C2C(C1=O)C1(c3ccccc3)C(=O)C2(c2ccccc2)C(c2ccc(C)cc2)=C1c1ccc(C)cc1` (stereo not given), the GI50 in test [1] was 17.6 µM; in [2] it was greater than 100 µM; in [3], greater than 100 µM; in test [4], 21.7 µM; in [5], greater than 100 µM; in test [6], 33.1 µM. In addition, the GI50 in test [7], in test [8], in [9] and in test [10] was greater than 100 µM each time. Further, the TGI in test [1], in test [2], in test [3], in test [4], in [5] and in [6] was greater than 100 µM in each case. Moreover, the TGI in [7], in test [8], in test [9] and in test [10] was greater than 100 µM each time.
